The values below come from paper PMC5218480 (PLoS ONE, 2017).

The test system of this experiment is MV-4-11 cells. The experiment is described as follows: Gene expression microarray analysis (Affymetrix PrimeView) and GSEA. Also on record: RFU PODN (11730768_x_at) / Fold change /veh PODN (11730768_x_at) / RFU LINC00158 (11744669_a_at) / Fold change /veh LINC00158 (11744669_a_at) / RFU DUSP10 (11751237_a_at) / Fold change /veh DUSP10 (11751237_a_at) / RFU ID3 (11757404_x_at) / Fold change /veh ID3 (11757404_x_at) / RFU PLEKHG5 (11737974_s_at) / Fold change /veh PLEKHG5 (11737974_s_at) / RFU LRRC4B (11730491_at) / Fold change /veh LRRC4B (11730491_at) / RFU GIMAP4 (11747438_a_at) / Fold change /veh GIMAP4 (11747438_a_at) / RFU KRT8 (11758183_x_at) / Fold change /veh KRT8 (11758183_x_at) / RFU CNN1 (11734310_a_at) / Fold change /veh CNN1 (11734310_a_at) / RFU VPS37D (11726825_at) / Fold change /veh VPS37D (11726825_at) / RFU C10orf10 (11716522_x_at) / Fold change /veh C10orf10 (11716522_x_at) / RFU KIR2DL2 /// KIR2DL4 /// KIR2DL5A /// KIR2DL5B /// KIR2DS1 /// KIR2DS2 /// KIR2DS3 /// KIR2DS4 /// KIR3DL3 /// KIR3DL3 /// KIR3DS1 (11738374_at) / Fold change /veh KIR2DL2 /// KIR2DL4 /// KIR2DL5A /// KIR2DL5B /// KIR2DS1 /// KIR2DS2 /// KIR2DS3 /// KIR2DS4 /// KIR3DL3 /// KIR3DL3 /// KIR3DS1 (11738374_at) / RFU C1QL1 (11718748_at) / Fold change /veh C1QL1 (11718748_at) / RFU TMPRSS4 (11747572_a_at) / Fold change /veh TMPRSS4 (11747572_a_at) / RFU HAMP (11756126_x_at) / Fold change /veh HAMP (11756126_x_at) / RFU RNFT2 (11725882_a_at) / Fold change /veh RNFT2 (11725882_a_at) / RFU NR4A2 (11747474_a_at) / Fold change /veh NR4A2 (11747474_a_at) / RFU ABCC12 (11746883_a_at) / Fold change /veh ABCC12 (11746883_a_at) / RFU TMEM136 (11760407_x_at) / Fold change /veh TMEM136 (11760407_x_at) / RFU CLDN22 /// WWC2 (11732394_at) / Fold change /veh CLDN22 /// WWC2 (11732394_at) / RFU HLA-DPB1 (11760878_x_at) / Fold change /veh HLA-DPB1 (11760878_x_at) / RFU SPINT1 (11716480_a_at) / Fold change /veh SPINT1 (11716480_a_at) / RFU GAP43 (11754022_s_at) / Fold change /veh GAP43 (11754022_s_at) / RFU A4GNT (11735810_at) / Fold change /veh A4GNT (11735810_at) / RFU PRB3 (11715151_x_at) / Fold change /veh PRB3 (11715151_x_at) / RFU TUBB4B (11761932_at) / Fold change /veh TUBB4B (11761932_at) / RFU CAPN14 (11732068_a_at) / Fold change /veh CAPN14 (11732068_a_at) / RFU TMCC2 (11721928_a_at) / Fold change /veh TMCC2 (11721928_a_at) / RFU IRGQ (11745062_a_at) / Fold change /veh IRGQ (11745062_a_at) / RFU FAM174B (11720279_a_at) / Fold change /veh FAM174B (11720279_a_at) / RFU TMPRSS4 (11748680_a_at) / Fold change /veh TMPRSS4 (11748680_a_at) / RFU FAM212B (11763350_a_at) / Fold change /veh FAM212B (11763350_a_at) / RFU PLEKHG5 (11743358_a_at) / Fold change /veh PLEKHG5 (11743358_a_at) / RFU ZSCAN30 (11745921_a_at) / Fold change /veh ZSCAN30 (11745921_a_at) / RFU CMKLR1 (11741424_a_at) / Fold change /veh CMKLR1 (11741424_a_at) / RFU LOC101060620 /// MAPK8IP1 (11723275_at) / Fold change /veh LOC101060620 /// MAPK8IP1 (11723275_at) / RFU SPTSSB (11747773_x_at) / Fold change /veh SPTSSB (11747773_x_at) / RFU PRSS12 (11739890_at) / Fold change /veh PRSS12 (11739890_at) / RFU BIN1 (11741810_x_at) / Fold change /veh BIN1 (11741810_x_at) / RFU WNT11 (11732464_a_at) / Fold change /veh WNT11 (11732464_a_at) / RFU C10orf10 (11716521_a_at) / Fold change /veh C10orf10 (11716521_a_at) / RFU C5orf56 (11738089_at) / Fold change /veh C5orf56 (11738089_at) / RFU CYB561 (11721691_x_at) / Fold change /veh CYB561 (11721691_x_at) / RFU ANKRD19P (11752326_a_at) / Fold change /veh ANKRD19P (11752326_a_at) / RFU OR2T12 /// OR2T33 /// OR2T8 (11738714_s_at) / Fold change /veh OR2T12 /// OR2T33 /// OR2T8 (11738714_s_at) / RFU VCAN (11748164_a_at) / Fold change /veh VCAN (11748164_a_at) / RFU JSRP1 (11732532_at) / Fold change /veh JSRP1 (11732532_at) / RFU KRTAP10-11 (11738290_x_at) / Fold change /veh KRTAP10-11 (11738290_x_at) / RFU MYO3A (11730013_a_at) / Fold change /veh MYO3A (11730013_a_at) / RFU EBF3 (11725865_a_at) / Fold change /veh EBF3 (11725865_a_at) / RFU CAMK2N1 (11719241_x_at) / Fold change /veh CAMK2N1 (11719241_x_at) / RFU C5orf56 (11738088_a_at) / Fold change /veh C5orf56 (11738088_a_at) / RFU OLFML3 (11715873_a_at) / Fold change /veh OLFML3 (11715873_a_at) / RFU LOC100653217 /// NTM (11731650_a_at) / Fold change /veh LOC100653217 /// NTM (11731650_a_at) / RFU MAPK11 (11762145_a_at) / Fold change /veh MAPK11 (11762145_a_at) / RFU FIZ1 (11724087_x_at) / Fold change /veh FIZ1 (11724087_x_at) / RFU OASL (11726364_x_at) / Fold change /veh OASL (11726364_x_at) / RFU SOX15 (11748057_x_at) / Fold change /veh SOX15 (11748057_x_at) / RFU CD79A (11719716_a_at) / Fold change /veh CD79A (11719716_a_at) / RFU HIST1H1D (11736915_at) / Fold change /veh HIST1H1D (11736915_at) / RFU CASKIN2 (11723855_a_at) / Fold change /veh CASKIN2 (11723855_a_at) / RFU LOC730098 (11760151_x_at) / Fold change /veh LOC730098 (11760151_x_at) / RFU OR4N2 (11742367_at) / Fold change /veh OR4N2 (11742367_at) / RFU PRRT2 (11749266_a_at) / Fold change /veh PRRT2 (11749266_a_at) / RFU SNX32 (11753110_a_at) / Fold change /veh SNX32 (11753110_a_at) / RFU CDHR5 (11726645_a_at) / Fold change /veh CDHR5 (11726645_a_at) / RFU RCAN1 (11760418_a_at) / Fold change /veh RCAN1 (11760418_a_at) / RFU FAM167A (11723789_a_at) / Fold change /veh FAM167A (11723789_a_at) / RFU FAM26E (11764081_at) / Fold change /veh FAM26E (11764081_at) / RFU ISYNA1 (11749810_s_at) / Fold change /veh ISYNA1 (11749810_s_at) / RFU ACY1 (11761880_at) / Fold change /veh ACY1 (11761880_at) / RFU 11764098_at / Fold change /veh 11764098_at / RFU SAMD14 (11745864_x_at) / Fold change /veh SAMD14 (11745864_x_at) / RFU NPB (11741838_a_at) / Fold change /veh NPB (11741838_a_at) / RFU TMPRSS6 (11731388_a_at) / Fold change /veh TMPRSS6 (11731388_a_at) / RFU KRTAP10-2 (11738614_at) / Fold change /veh KRTAP10-2 (11738614_at) / RFU ARHGAP8 /// PRR5-ARHGAP8 (11727945_x_at) / Fold change /veh ARHGAP8 /// PRR5-ARHGAP8 (11727945_x_at) / RFU KRTAP5-7 /// NADSYN1 (11734609_at) / Fold change /veh KRTAP5-7 /// NADSYN1 (11734609_at) / RFU RASL12 (11751679_a_at) / Fold change /veh RASL12 (11751679_a_at) / RFU CDKN2B (11736163_a_at) / Fold change /veh CDKN2B (11736163_a_at) / RFU PRF1 (11729649_at) / Fold change /veh PRF1 (11729649_at) / RFU, ZNF638 /// ZNF638-IT1 / Fold change vs veh, ZNF638 /// ZNF638-IT1 / RFU, PANK3 / Fold change vs veh, PANK3 / RFU, SH3YL1 / Fold change vs veh, SH3YL1 / RFU, ZEB2 / Fold change vs veh, ZEB2 / RFU, NRIP1 / Fold change vs veh, NRIP1 / RFU, PTTG1IP / Fold change vs veh, PTTG1IP / RFU, CAPN2 / Fold change vs veh, CAPN2 / RFU, MED14 / Fold change vs veh, MED14 / RFU, SNORA58 / Fold change vs veh, SNORA58 / RFU, C1orf63 / Fold change vs veh, C1orf63 / RFU, LRRFIP1 / Fold change vs veh, LRRFIP1 / RFU, NDUFAF7 / Fold change vs veh, NDUFAF7 / RFU, SLC12A2 / Fold change vs veh, SLC12A2 / RFU, IBTK / Fold change vs veh, IBTK / RFU, ESF1 / Fold change vs veh, ESF1 / Fold change vs veh, TMEM50B / RFU, TAOK1 / Fold change vs veh, TAOK1 / RFU, ACBD3 / Fold change vs veh, ACBD3 / RFU, TMA16 / Fold change vs veh, TMA16 / RFU, RWDD3 / Fold change vs veh, RWDD3 / RFU, BCAT1 / Fold change vs veh, BCAT1 / RFU, EDEM3 / Fold change vs veh, EDEM3 / RFU, TMEM33 / Fold change vs veh, TMEM33 / RFU, WDR75 / Fold change vs veh, WDR75 / RFU, AHCTF1 / Fold change vs veh, AHCTF1 / RFU, TFRC / Fold change vs veh, TFRC / RFU, ZDHHC17 / Fold change vs veh, ZDHHC17 / RFU, NOM1 / Fold change vs veh, NOM1 / RFU, ARL8B / Fold change vs veh, ARL8B / RFU, ZBTB11 / Fold change vs veh, ZBTB11 / RFU, TAMM41 / Fold change vs veh, TAMM41 / RFU, KIAA1704 /// LOC100996395 / Fold change vs veh, KIAA1704 /// LOC100996395 / RFU, ING1 / Fold change vs veh, ING1 / RFU, TRMT61B / Fold change vs veh, TRMT61B / RFU, FUBP3 / Fold change vs veh, FUBP3 / RFU, TP53 / Fold change vs veh, TP53 / RFU, TNKS2 / Fold change vs veh, TNKS2 / RFU, ZFP14 / Fold change vs veh, ZFP14 / RFU, ACTR2 / Fold change vs veh, ACTR2 / RFU, PPP3R1 / Fold change vs veh, PPP3R1 / RFU, PIK3R1 / Fold change vs veh, PIK3R1 / RFU, HNRNPA1 / Fold change vs veh, HNRNPA1 / RFU, RNF170 / Fold change vs veh, RNF170 / RFU, ZNF28 / Fold change vs veh, ZNF28 / RFU, RNGTT / Fold change vs veh, RNGTT / RFU, OGT / Fold change vs veh, OGT / RFU, BRD1 / Fold change vs veh, BRD1 / RFU, MARS / Fold change vs veh, MARS / RFU, ZNF655 / Fold change vs veh, ZNF655 / RFU, FAHD1 / Fold change vs veh, FAHD1 / RFU, BDP1 / Fold change vs veh, BDP1 / RFU, LRRCC1 / Fold change vs veh, LRRCC1 / RFU, ARID1A / Fold change vs veh, ARID1A / RFU, ZNF146 / Fold change vs veh, ZNF146 / RFU, ZNF330 / Fold change vs veh, ZNF330 / RFU, GPN3 / Fold change vs veh, GPN3 / RFU, C9orf123 / Fold change vs veh, C9orf123 / RFU, N4BP2L2 / Fold change vs veh, N4BP2L2 / RFU, ARFIP1 / Fold change vs veh, ARFIP1 / RFU, FAM179B / Fold change vs veh, FAM179B / RFU, BCL10 / Fold change vs veh, BCL10 / RFU, UHRF1BP1L / Fold change vs veh, UHRF1BP1L / RFU, BET1 / Fold change vs veh, BET1 / RFU, CNOT2 / Fold change vs veh, CNOT2 / RFU, ZNF268 / Fold change vs veh, ZNF268 / Fold change vs veh, ZNF507 / RFU, DGCR2 / Fold change vs veh, DGCR2 / RFU, WDSUB1 / Fold change vs veh, WDSUB1 / Fold change vs veh, HSP90B1 /// MIR3652 / RFU, ADSS / Fold change vs veh, ADSS / RFU, GK / Fold change vs veh, GK / RFU, ZNF148 / Fold change vs veh, ZNF148 / RFU, TAF9 / Fold change vs veh, TAF9 / RFU, SLC1A5 / Fold change vs veh, SLC1A5 / RFU, SLMO2 / Fold change vs veh, SLMO2 / RFU, ABCC4 / Fold change vs veh, ABCC4 / RFU, LOC101060439 /// RAP1B / Fold change vs veh, LOC101060439 /// RAP1B / RFU, RFX7 / Fold change vs veh, RFX7 / RFU, GTPBP10 / Fold change vs veh, GTPBP10 / RFU, CNEP1R1 / Fold change vs veh, CNEP1R1 / RFU, BIVM-ERCC5 /// ERCC5 / Fold change vs veh, BIVM-ERCC5 /// ERCC5 / RFU, ILF3 / Fold change vs veh, ILF3 / RFU 11762660_at / Fold change /veh 11762660_at / RFU VCAN (11757783_s_at) / Fold change /veh VCAN (11757783_s_at) / RFU DDX43 (11728927_at) / Fold change /veh DDX43 (11728927_at) / RFU KRT8 (11758188_x_at) / Fold change /veh KRT8 (11758188_x_at) / RFU NKD1 (11759106_at) / Fold change /veh NKD1 (11759106_at) / RFU SRD5A1 (11742802_a_at) / Fold change /veh SRD5A1 (11742802_a_at) / RFU TPSAB1 /// TPSB2 (11721975_s_at) / Fold change /veh TPSAB1 /// TPSB2 (11721975_s_at) / RFU GSTM3 (11746129_a_at) / Fold change /veh GSTM3 (11746129_a_at) / RFU IL23R (11737362_x_at) / Fold change /veh IL23R (11737362_x_at) / RFU TMEM51 (11727254_a_at) / Fold change /veh TMEM51 (11727254_a_at) / RFU PIWIL2 (11732686_x_at) / Fold change /veh PIWIL2 (11732686_x_at) / RFU ORM1 (11744905_x_at) / Fold change /veh ORM1 (11744905_x_at) / RFU CCDC152 (11743942_at) / Fold change /veh CCDC152 (11743942_at) / RFU ECM1 (11717891_a_at) / Fold change /veh ECM1 (11717891_a_at) / RFU IL23R (11748794_a_at) / Fold change /veh IL23R (11748794_a_at) / RFU TNFAIP8L3 (11732012_x_at) / Fold change /veh TNFAIP8L3 (11732012_x_at) / RFU MBOAT4 (11741988_at) / Fold change /veh MBOAT4 (11741988_at) / RFU 11764193_at / Fold change /veh 11764193_at / RFU TMEM53 (11763286_at) / Fold change /veh TMEM53 (11763286_at) / RFU MAGEB2 (11727129_at) / Fold change /veh MAGEB2 (11727129_at) / RFU TMEM200A (11744735_a_at) / Fold change /veh TMEM200A (11744735_a_at) / RFU CCDC152 (11751479_a_at) / Fold change /veh CCDC152 (11751479_a_at) / RFU FAM211A (11726209_a_at) / Fold change /veh FAM211A (11726209_a_at) / RFU RGS16 (11746705_a_at) / Fold change /veh RGS16 (11746705_a_at) / RFU VCAN (11755009_s_at) / Fold change /veh VCAN (11755009_s_at) / RFU RHOB (11743442_s_at) / Fold change /veh RHOB (11743442_s_at) / RFU RGS16 (11720943_a_at) / Fold change /veh RGS16 (11720943_a_at) / RFU RGS16 (11720944_at) / Fold change /veh RGS16 (11720944_at) / RFU, VPS4B / Fold change vs veh, VPS4B / RFU, CREB1 / Fold change vs veh, CREB1 / RFU, DNAJC13 / Fold change vs veh, DNAJC13 / RFU, GNAQ / Fold change vs veh, GNAQ / RFU, CDK5R1 / Fold change vs veh, CDK5R1 / RFU, ZRANB3 / Fold change vs veh, ZRANB3 / RFU, CUL4A / Fold change vs veh, CUL4A / RFU, CCNY / Fold change vs veh, CCNY / RFU, UFL1 / Fold change vs veh, UFL1 / RFU, COG3 / Fold change vs veh, COG3 / RFU, DIAPH2 / Fold change vs veh, DIAPH2 / RFU, SKA2 / Fold change vs veh, SKA2 / RFU, AFF3 / Fold change vs veh, AFF3 / RFU, LMF1 / Fold change vs veh, LMF1 / RFU, IPO11 / Fold change vs veh, IPO11 / RFU, DFFB / Fold change vs veh, DFFB / RFU, FOXP1 / Fold change vs veh, FOXP1 / RFU, CARD8 / Fold change vs veh, CARD8 / RFU, STRN3 / Fold change vs veh, STRN3 / RFU, ADK / Fold change vs veh, ADK / RFU, RASSF2 / Fold change vs veh, RASSF2 / RFU, WIPF1 / Fold change vs veh, WIPF1 / RFU, LARP1B / Fold change vs veh, LARP1B / RFU, RASA1 / Fold change vs veh, RASA1 / RFU, RB1 / Fold change vs veh, RB1 / RFU, PPFIA1 / Fold change vs veh, PPFIA1 / RFU, MAT2A / Fold change vs veh, MAT2A / RFU, CCT5 / Fold change vs veh, CCT5 / RFU, WDR92 / Fold change vs veh, WDR92 / RFU, CUX1 / Fold change vs veh, CUX1 / RFU, TTC7A / Fold change vs veh, TTC7A / RFU, TMEM135 / Fold change vs veh, TMEM135 / RFU, DEPTOR / Fold change vs veh, DEPTOR / RFU, CPM / Fold change vs veh, CPM / RFU, DNAJB6 / Fold change vs veh, DNAJB6 / RFU, CACNA2D3 / Fold change vs veh, CACNA2D3 / RFU, DTX4 / Fold change vs veh, DTX4 / RFU, TFCP2 / Fold change vs veh, TFCP2 / RFU, GMCL1 /// GMCL1P1 / Fold change vs veh, GMCL1 /// GMCL1P1 / RFU, AEBP2 / Fold change vs veh, AEBP2 / RFU, SNHG1 /// SNORD22 /// SNORD25 /// SNORD26 /// SNORD27 /// SNORD28 /// SNORD29 /// SNORD31 / Fold change vs veh, SNHG1 /// SNORD22 /// SNORD25 /// SNORD26 /// SNORD27 /// SNORD28 /// SNORD29 /// SNORD31 / Fold change (Aza/veh), C12orf56 (ProbeSet 11735607_a_at) / Fold change (ACY-1035/veh), C12orf56 (ProbeSet 11735607_a_at) / Fold change (Aza/veh), FGFR1OP (ProbeSet 11751329_s_at) / Fold change (ACY-1035/veh), FGFR1OP (ProbeSet 11751329_s_at) / Fold change (Aza/veh), VPS36 (ProbeSet 11739960_a_at) / Fold change (ACY-1035/veh), VPS36 (ProbeSet 11739960_a_at) / RFU SYPL1 (11715823_x_at) / Fold change /veh SYPL1 (11715823_x_at) / RFU IGFBP7 (11715501_s_at) / Fold change /veh IGFBP7 (11715501_s_at) / RFU REEP3 (11722064_at) / Fold change /veh REEP3 (11722064_at) / RFU IGLL1 (11728026_x_at) / Fold change /veh IGLL1 (11728026_x_at): dose or concentration left out as unconfirmed. Particulars: MV-4-11 cells, 48 hours. It is filed as cell-based, human.

Structures are written as SMILES.

`Nc1ccc(-c2cccs2)cc1NC(=O)c1ccc2c(c1)cc(C1CC1)n2CCN1CCOCC1` [ACY-1035]: the “Fold change /veh CMKLR1 (11741424_a_at)” value was 1.11.
